Reference: ChEMBL document CHEMBL3616364, “Going Out on a Limb: Delineating The Effects of β-Branching, N-Methylation, and Side Chain Size on the Passive Permeability, Solubility, and Flexibility of Sanguinamide A Analogues” (J Med Chem, 2015)
Converted amounts (≈) assume the structure as drawn. Starred links: 1 amine or outer side, 2 acyl side, 3 side chain; linkers in the order of their positions; H or OH if unused. Non-standard residues stand in square brackets, D forms with d. Residues, ends and D or L forms follow the SMILES beside them. Ile(ψThz) = CC[C@H](C)[C@H](N[*:1])c1nc(C(=O)[*:2])cs1; LeuThz(4-CO) = CC(C)C[C@H](N[*:1])c1nc(C(=O)[*:2])cs1; ValThz = CC(C)[C@H](N[*:1])c1nc(C(=O)[*:2])cs1; NMeF = CN[C@@H](Cc1ccccc1)C(=O)O; NMeI = CC[C@H](C)[C@H](NC)C(=O)O; Tle = CC(C)(C)[C@H](N)C(=O)O; NMeA = CN[C@@H](C)C(=O)O

How the values were obtained:
[1] = Kinetic solubility of the compound in PBS at pH 7.4
[2] = Permeability of the compound at pH 7.4 at 10 uM after 10 hrs by LC-MS based PAMPA
physchem = details: PBS
[3] = Retention time of the compound in isocratic acetonitrile/water by HPLC analysis; details: buffer
[4] = Apparent permeability from apical to basolateral side in human Caco2 cells at 10 uM after 2 hrs by LC-MS/MS analysis; details: Caco-2

SMILES	solubility kinetic [1] [µM]	Papp at 10 h, 10 µM [2] [×10⁻⁶ cm/s]	solubility thermodynamic at 48 h (physchem) [µM]	Retention_time [3] [min]	Papp A→B at 2 h, 10 µM [4] [×10⁻⁶ cm/s]
CC[C@H](C)[C@@H]1NC(=O)[C@@H]2CCCN2C(=O)[C@H](Cc2ccccc2)NC(=O)[C@H](C)NC(=O)c2csc(n2)[C@H]([C@@H](C)CC)NC(=O)[C@@H]2CCCN2C1=O (cyclo(AFPIP[Ile(ψThz)]))	147 (≈ 106 µg/mL)	5.3	107 (≈ 77.2 µg/mL)	2.77	1.3
CC[C@H](C)[C@@H]1NC(=O)[C@@H]2CCCN2C(=O)[C@H](Cc2ccccc2)NC(=O)[C@H](C)NC(=O)c2csc(n2)[C@H](CC(C)C)NC(=O)[C@@H]2CCCN2C1=O (cyclo(AFPIP[LeuThz(4-CO)]))	182 (≈ 131 µg/mL)	5.6	35 (≈ 25.3 µg/mL)	2.87	1.3
CC[C@H](C)[C@@H]1NC(=O)[C@@H]2CCCN2C(=O)[C@H](Cc2ccccc2)NC(=O)[C@H](C)NC(=O)c2csc(n2)[C@H](C(C)C)NC(=O)[C@@H]2CCCN2C1=O (cyclo(AFPIP[ValThz]))	285 (≈ 202 µg/mL)	4.8	205 (≈ 145 µg/mL)	2.03	3.7
CC[C@H](C)[C@@H]1NC(=O)[C@@H]2CCCN2C(=O)[C@H](CC(C)C)NC(=O)[C@@H]2CCCN2C(=O)[C@H](Cc2ccccc2)NC(=O)[C@H](C)NC(=O)c2csc1n2 (cyclo(AFPLP[Ile(ψThz)]))	133 (≈ 96 µg/mL)	5.3	122 (≈ 88.1 µg/mL)	2.19	0.2
CC[C@H](C)[C@@H]1NC(=O)[C@@H]2CCCN2C(=O)[C@H]([C@@H](C)O)NC(=O)[C@@H]2CCCN2C(=O)[C@H](Cc2ccccc2)NC(=O)[C@H](C)NC(=O)c2csc1n2 (cyclo(AFPTP[Ile(ψThz)]))	285 (≈ 202 µg/mL)	0.2		1.02	0.4
CC[C@H](C)[C@@H]1NC(=O)[C@@H]2CCCN2C(=O)[C@H](C(C)C)NC(=O)[C@@H]2CCCN2C(=O)[C@H](Cc2ccccc2)NC(=O)[C@H](C)NC(=O)c2csc1n2 (cyclo(AFPVP[Ile(ψThz)]))	182 (≈ 129 µg/mL)	4.9	236 (≈ 167 µg/mL)	1.97	0.3
CC[C@H](C)[C@@H]1NC(=O)[C@@H]2CCCN2C(=O)[C@H]([C@@H](C)CC)N(C)C(=O)[C@@H]2CCCN2C(=O)[C@H](Cc2ccccc2)NC(=O)[C@H](C)NC(=O)c2csc1n2 (cyclo(AFP[NMeI]P[Ile(ψThz)]))		1.3		1.79	0.4
CC[C@H](C)[C@@H]1NC(=O)[C@@H]2CCCN2C(=O)[C@H](Cc2ccccc2)N(C)C(=O)[C@H](C)NC(=O)c2csc(n2)[C@H]([C@@H](C)CC)NC(=O)[C@@H]2CCCN2C1=O (cyclo(A[NMeF]PIP[Ile(ψThz)]))	105 (≈ 77.3 µg/mL)	11	172 (≈ 127 µg/mL)	3.03	7.4
CC[C@H](C)[C@@H]1NC(=O)[C@@H]2CCCN2C(=O)[C@H](C(C)C)NC(=O)[C@@H]2CCCN2C(=O)[C@H](Cc2ccccc2)N(C)C(=O)[C@H](C)NC(=O)c2csc1n2 (cyclo(A[NMeF]PVP[Ile(ψThz)]))	133 (≈ 96 µg/mL)	9.1	296 (≈ 214 µg/mL)	2.24	6.8
CC[C@H](C)[C@@H]1NC(=O)c2csc(n2)[C@H]([C@@H](C)CC)NC(=O)[C@@H]2CCCN2C(=O)[C@H]([C@@H](C)CC)NC(=O)[C@@H]2CCCN2C(=O)[C@H](Cc2ccccc2)NC1=O (cyclo(FPIP[Ile(ψThz)]I))	39 (≈ 29.8 µg/mL)	6.1	6 (≈ 4.58 µg/mL)	7.86	9.6
CC[C@H](C)[C@@H]1NC(=O)[C@@H]2CCCN2C(=O)[C@H](Cc2ccccc2)NC(=O)[C@H](CC(C)C)NC(=O)c2csc(n2)[C@H]([C@@H](C)CC)NC(=O)[C@@H]2CCCN2C1=O (cyclo(FPIP[Ile(ψThz)]L))	39 (≈ 29.8 µg/mL)	4.7	10 (≈ 7.64 µg/mL)	9.13	10.9
CC[C@H](C)[C@@H]1NC(=O)[C@@H]2CCCN2C(=O)[C@H](Cc2ccccc2)NC(=O)[C@H](C)N(C)C(=O)c2csc(n2)[C@H]([C@@H](C)CC)NC(=O)[C@@H]2CCCN2C1=O (cyclo(FPIP[Ile(ψThz)][NMeA]))	333 (≈ 245 µg/mL)	0.5	801 (≈ 589 µg/mL)	1.48	0.2
CC[C@H](C)[C@@H]1NC(=O)[C@@H]2CCCN2C(=O)[C@H](Cc2ccccc2)NC(=O)[C@H](C(C)(C)C)NC(=O)c2csc(n2)[C@H]([C@@H](C)CC)NC(=O)[C@@H]2CCCN2C1=O (cyclo(FPIP[Ile(ψThz)][Tle]))				8.72	
CC(C)[C@@H]1NC(=O)c2csc(n2)[C@H](C(C)C)NC(=O)[C@@H]2CCCN2C(=O)[C@H](C(C)C)NC(=O)[C@@H]2CCCN2C(=O)[C@H](Cc2ccccc2)NC1=O (cyclo(FPVP[ValThz]V))	105 (≈ 75.8 µg/mL)	4.7	148 (≈ 107 µg/mL)	2.81	2.2
CC[C@H](C)[C@@H]1NC(=O)[C@@H]2CCCN2C(=O)[C@H](Cc2ccccc2)N(C)C(=O)[C@H](CC(C)C)NC(=O)c2csc(n2)[C@H]([C@@H](C)CC)NC(=O)[C@@H]2CCCN2C1=O (cyclo(IP[Ile(ψThz)]L[NMeF]P))	133 (≈ 103 µg/mL)	17.2	111 (≈ 86.4 µg/mL)	5.06	19.3
CC[C@H](C)[C@@H]1NC(=O)[C@@H]2CCCN2C(=O)[C@H](Cc2ccccc2)N(C)C(=O)[C@H](C(C)(C)C)NC(=O)c2csc(n2)[C@H]([C@@H](C)CC)NC(=O)[C@@H]2CCCN2C1=O (cyclo(IP[Ile(ψThz)][Tle][NMeF]P))				10.94	
CC[C@H](C)[C@@H]1NC(=O)c2csc(n2)[C@H]([C@@H](C)CC)NC(=O)[C@@H]2CCCN2C(=O)[C@H]([C@@H](C)CC)NC(=O)[C@@H]2CCCN2C(=O)[C@H](Cc2ccccc2)N(C)C1=O (cyclo(I[NMeF]PIP[Ile(ψThz)]))	21 (≈ 16.3 µg/mL)	1.5	12 (≈ 9.34 µg/mL)	10	21.2
